{
  "source": "patent US6462040B1",
  "about": "“Cis-substituted aminocyclopropane derivative” (Daiicho Pharmaceutical Co., Ltd., priority 1996, dated 2002)",
  "assay_in_all_cases": "Antimicrobial activity, MIC (standard method of the Japan Chemotherapeutic Society)",
  "type_in_all_cases": "cell-based",
  "key": {"[1]": {"test_system": "S. aureaus, 209P", "text": "(§1) The present invention will further be illustrated in greater detail by way of Examples and Reference Examples, but the present invention should not be construed as being limited thereto. The antimicrobial activity of the compounds prepared was examined in accordance with the standard method specified by the Japan Chemotherapeutic Society, and the results obtained were expressed in terms of minimum inhibitory concentration (MIC; μg/ml)."}, "[2]": {"test_system": "S. flexneli, 2A 5503", "text": "as §1"}, "[3]": {"test_system": "Ps. maltophilia, IID-1275", "text": "as §1"}, "[4]": {"test_system": "S. epidermidis, 56500", "text": "as §1"}, "[5]": {"test_system": "E. coli, NIHJ", "text": "as §1"}, "[6]": {"test_system": "S. aureus, 870307", "text": "as §1"}, "[7]": {"test_system": "Str. pyogenes, G-36", "text": "as §1"}, "[8]": {"test_system": "Pr. mirabilis, IFO-3849", "text": "as §1"}, "[9]": {"test_system": "Str. faecalis, ATCC-19433", "text": "as §1"}, "[10]": {"test_system": "Pr. vulgaris, 08601", "text": "as §1"}, "[11]": {"test_system": "Ser. marcescens, 10100", "text": "as §1"}, "[12]": {"test_system": "Ps. aeruginosa, 32104", "text": "as §1"}, "[13]": {"test_system": "Ps. aeruginosa, 32121", "text": "as §1"}},
  "data": [
    {"smiles": "Cc1c(N2CCC([C@@H]3C[C@@H]3N)C2)c(F)c(N)c2c(=O)c(C(=O)O)cn([C@@H]3C[C@@H]3F)c12", "note": "(single isomer, unassigned; isomer b) [Example 3]", "values": [
      {"measurement": "MIC", "setting": "[1]", "value": "≦0.003 μg/ml"},
      {"measurement": "MIC", "setting": "[2]", "value": "≦0.003 μg/ml"},
      {"measurement": "MIC", "setting": "[3]", "value": 0.05, "unit": "µg/mL"},
      {"measurement": "MIC", "setting": "[4]", "value": 0.006, "unit": "µg/mL"},
      {"measurement": "MIC", "setting": "[5]", "value": "≦0.003 μg/ml"},
      {"measurement": "MIC", "setting": "[6]", "value": 0.025, "unit": "µg/mL"},
      {"measurement": "MIC", "setting": "[7]", "value": 0.006, "unit": "µg/mL"},
      {"measurement": "MIC", "setting": "[8]", "value": 0.05, "unit": "µg/mL"},
      {"measurement": "MIC", "setting": "[9]", "value": 0.025, "unit": "µg/mL"},
      {"measurement": "MIC", "setting": "[10]", "value": 0.05, "unit": "µg/mL"},
      {"measurement": "MIC", "setting": "[11]", "value": 0.10, "unit": "µg/mL"},
      {"measurement": "MIC", "setting": "[12]", "value": 0.20, "unit": "µg/mL"},
      {"measurement": "MIC", "setting": "[13]", "value": 0.10, "unit": "µg/mL"}
    ]}
  ]
}
